Results as given in patent US11505558B1, “Antiviral heterocyclic compounds” (Enanta Pharmaceuticals, Inc., priority 2019, dated 2022).

System: genotype A, "Long" strain RSV
Assay: RSV-A assay (CPE, ATPlite readout in Hep-2 cells)
Assay type: cell-based
Settings: human respiratory syncytial virus, HEp-2, Hep-2 cells, genotype A "Long" strain RSV, MOI 0.1; read-out: Human RSV-A (“Long” strain) EC50
Procedure, shortened: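 Protection from RSV-induced cytopathic effect, measured as ATPlite luminescence after 5 days, gave EC50 values. Assay used genotype A Long strain at MOI 0.1 on Hep-2 cells seeded at 8,000/well in DMEM growth media with 10% FBS; compounds tested as 2-fold dilutions in duplicate.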

Compound | EC50
C[C@]1(C(N)=O)COc2c1cc([C@@](O)(CNC(=O)c1cc(NC(=O)[C@H]3CCN3)c3ncccc3c1)C(F)(F)F)nc2-c1ccc(F)cc1 [Example 399] | > 200 nM
C[C@]1(C(N)=O)COc2c1cc([C@@](O)(CNC(=O)c1cc(NC(=O)[C@@H]3CCN3)c3ncccc3c1)C(F)(F)F)nc2-c1ccc(F)cc1 [Example 400] | > 200 nM
C[C@]1(C(N)=O)COc2c1cc([C@@](O)(CNC(=O)c1cc(NC(=O)C3CNC3)c3ncccc3c1)C(F)(F)F)nc2-c1ccc(F)cc1 [Example 401] | > 200 nM
Cc1ncc(C(=O)Nc2cc(C(=O)NC[C@](O)(c3cc4c(c(-c5ccc(F)cc5)n3)OC[C@]4(C)C(N)=O)C(F)(F)F)cc3cccnc23)[nH]1 [Example 402] | < 200 nM
C[C@]1(C(N)=O)COc2c1cc([C@@](O)(CNC(=O)c1cc(NC(=O)c3ncc[nH]3)c3ncccc3c1)C(F)(F)F)nc2-c1ccc(F)cc1 [Example 403] | < 200 nM
C[C@]1(C(N)=O)COc2c1cc([C@@](O)(CNC(=O)c1cc(NC(=O)c3cnn[nH]3)c3ncccc3c1)C(F)(F)F)nc2-c1ccc(F)cc1 [Example 404] | > 200 nM
C[C@@H](O)COc1ccc2cc(C(=O)NC[C@](O)(c3cc4c(c(-c5ccc(F)cc5)n3)OC[C@]4(C)C(N)=O)C(F)(F)F)cc(OC3CC3)c2n1 [Example 405] | > 200 nM
CC(C)(O)c1ccc2cc(C(=O)NC[C@](O)(c3cc4c(c(-c5ccc(F)cc5)n3)OC[C@]4(C)C(N)=O)C(F)(F)F)cc(OC3CC3)c2n1 [Example 407] | > 200 nM
CNC(=O)Nc1cc(C(=O)NC[C@](O)(c2cc3c(c(-c4ccc(F)cc4)n2)OC[C@]3(C)C(N)=O)C(F)(F)F)cc2cccnc12 [Example 409] | < 200 nM
C[C@]1(C(N)=O)COc2c1cc([C@@](O)(CNC(=O)c1cc(NC(=O)N3CCC3)c3ncccc3c1)C(F)(F)F)nc2-c1ccc(F)cc1 [Example 410] | < 200 nM
CC(C)(O)CNC(=O)Nc1cc(C(=O)NC[C@](O)(c2cc3c(c(-c4ccc(F)cc4)n2)OC[C@]3(C)C(N)=O)C(F)(F)F)cc2cccnc12 [Example 412] | < 200 nM
C[C@]1(C(N)=O)COc2c1cc([C@@](O)(CNC(=O)c1cc(NC(=O)NC3CNC3)c3ncccc3c1)C(F)(F)F)nc2-c1ccc(F)cc1 [Example 413] | > 200 nM
C[C@]1(C(N)=O)COc2c1cc([C@@](O)(CNC(=O)c1cc(NC(=O)NC3COC3)c3ncccc3c1)C(F)(F)F)nc2-c1ccc(F)cc1 [Example 414] | < 200 nM
C[C@]1(C(N)=O)COc2c1cc([C@@](O)(CNC(=O)c1cc(NC(=O)NC3CC3)c3ncccc3c1)C(F)(F)F)nc2-c1ccc(F)cc1 [Example 415] | < 200 nM
C[C@]1(C(N)=O)COc2c1cc([C@@](O)(CNC(=O)c1ccc3nc(N)oc3c1)C(F)(F)F)nc2-c1ccc(F)cc1 [Example 425] | < 200 nM
C[C@]1(C(N)=O)COc2c1cc([C@@](O)(CNC(=O)c1ccc3nc(N)oc3c1)C(F)(F)F)nc2-c1ccc(F)c(Cl)c1 [Example 426] | < 200 nM
COc1cc(C(=O)NC[C@](O)(c2cc3c(c(-c4ccc(F)cc4)n2)OC[C@]3(C)C(N)=O)C(F)(F)F)cc2cn(C)nc12 [Example 427] | < 200 nM

Compound | EC50
COc1cc(C(=O)NC[C@](O)(c2cc3c(c(-c4ccc(F)c(Cl)c4)n2)OC[C@]3(C)C(N)=O)C(F)(F)F)cc2cn(C)nc12 [Example 428] | < 200 nM
C[C@]1(C(N)=O)COc2c1cc([C@@](O)(CNC(=O)c1ccc3nc(N)sc3c1)C(F)(F)F)nc2-c1ccc(F)c(Cl)c1 [Example 432] | < 200 nM
COc1cc(C(=O)NC[C@](O)(c2cc3c(c(-c4ccc(Cl)c(F)c4)n2)OC[C@]3(C)C(N)=O)C(F)(F)F)cc2sc(N)nc12 [Example 434] | < 200 nM
COc1cc(C(=O)NC[C@](O)(c2cc3c(c(-c4ccc(C)cc4)n2)OC[C@]3(C)C(N)=O)C(F)(F)F)cc2sc(N)nc12 [Example 435] | < 200 nM
CN(C)c1nc2ccc(C(=O)NC[C@](O)(c3cc4c(c(-c5ccc(F)cc5)n3)OC[C@]4(C)C(N)=O)C(F)(F)F)cc2s1 [Example 438] | < 200 nM
CNc1nc2ccc(C(=O)NC[C@](O)(c3cc4c(c(-c5ccc(F)cc5)n3)OC[C@]4(C)C(N)=O)C(F)(F)F)cc2s1 [Example 439] | < 200 nM
C[C@]1(C(N)=O)COc2c1cc([C@@](O)(CNC(=O)c1ccc3nc(NC4CC4)sc3c1)C(F)(F)F)nc2-c1ccc(F)cc1 [Example 440] | < 200 nM
C[C@]1(C(N)=O)COc2c1cc([C@@](O)(CNC(=O)c1ccc3nc(N)sc3c1)C1CC1)nc2-c1ccc(F)cc1 [Example 441] | < 200 nM
C[C@]1(C(N)=O)COc2c1cc([C@@](O)(CNC(=O)c1cc(O)c3nc(N)sc3c1)C(F)(F)F)nc2-c1ccc(F)cc1 [Example 442] | < 200 nM
C[C@]1(C(N)=O)COc2c1cc([C@@](O)(CNC(=O)c1cc(F)c3nc(N)sc3c1)C(F)(F)F)nc2-c1ccc(F)cc1 [Example 443] | < 200 nM
Cn1c(N)nc2cc(C(=O)NC[C@](O)(c3cc4c(c(-c5ccc(F)cc5)n3)OC[C@]4(C)C(N)=O)C(F)(F)F)ccc21 [Example 447] | > 200 nM
C[C@]1(C(N)=O)COc2c1cc([C@@](O)(CNC(=O)c1ccc3nc(N)sc3c1)C(F)(F)F)nc2-c1ccc(Cl)cc1 [Example 448] | < 200 nM
C[C@]1(C(=O)NC2(C#N)CC2)COc2c1cc([C@@](O)(CNC(=O)c1cc(OC3CC3)c3ncccc3c1)C(F)(F)F)nc2-c1ccc(F)cc1 [Example 450] | < 200 nM
CC(C)(C)NC(=O)[C@@]1(C)COc2c1cc([C@@](O)(CNC(=O)c1cc(OC3CC3)c3ncccc3c1)C(F)(F)F)nc2-c1ccc(F)cc1 [Example 453] | < 200 nM
CC(=O)NCCNC(=O)[C@@]1(C)COc2c1cc([C@@](O)(CNC(=O)c1cc(OC3CC3)c3ncccc3c1)C(F)(F)F)nc2-c1ccc(F)cc1 [Example 454] | > 200 nM
CC(=O)NCCCNC(=O)[C@@]1(C)COc2c1cc([C@@](O)(CNC(=O)c1cc(OC3CC3)c3ncccc3c1)C(F)(F)F)nc2-c1ccc(F)cc1 [Example 455] | < 200 nM
CCCNC(=O)[C@@]1(C)COc2c1cc([C@@](O)(CNC(=O)c1cc(OC3CC3)c3ncccc3c1)C(F)(F)F)nc2-c1ccc(F)cc1 [Example 456] | < 200 nM

Results, then the compound that gave them:

EC50 | Compound
< 200 nM | C[C@]1(C(=O)NCCCOC(N)=O)COc2c1cc([C@@](O)(CNC(=O)c1cc(OC3CC3)c3ncccc3c1)C(F)(F)F)nc2-c1ccc(F)cc1 [Example 457]
> 200 nM | C[C@]1(C(=O)NC(=N)N)COc2c1cc([C@@](O)(CNC(=O)c1cc(OC3CC3)c3ncccc3c1)C(F)(F)F)nc2-c1ccc(F)cc1 [Example 458]
> 200 nM | CNC(=O)NCCNC(=O)[C@@]1(C)COc2c1cc([C@@](O)(CNC(=O)c1cc(OC3CC3)c3ncccc3c1)C(F)(F)F)nc2-c1ccc(F)cc1 [Example 461]
> 200 nM | CNC(=O)NCCCNC(=O)[C@@]1(C)COc2c1cc([C@@](O)(CNC(=O)c1cc(OC3CC3)c3ncccc3c1)C(F)(F)F)nc2-c1ccc(F)cc1 [Example 462]
> 200 nM | C[C@]1(C(=O)NCCN)COc2c1cc([C@@](O)(CNC(=O)c1cc(OC3CC3)c3ncccc3c1)C(F)(F)F)nc2-c1ccc(F)cc1 [Example 463]
> 200 nM | C[C@]1(C(=O)N2CC[C@@H](O)C2)COc2c1cc([C@@](O)(CNC(=O)c1cc(OC3CC3)c3ncccc3c1)C(F)(F)F)nc2-c1ccc(F)cc1 [Example 468]
> 200 nM | C[C@]1(C(=O)N2CC[C@H](O)C2)COc2c1cc([C@@](O)(CNC(=O)c1cc(OC3CC3)c3ncccc3c1)C(F)(F)F)nc2-c1ccc(F)cc1 [Example 469]
> 200 nM | C[C@]1(C(=O)N2CC(O)C2)COc2c1cc([C@@](O)(CNC(=O)c1cc(OC3CC3)c3ncccc3c1)C(F)(F)F)nc2-c1ccc(F)cc1 [Example 470]
> 200 nM | CC(C)CCNC(=O)[C@@]1(C)COc2c1cc([C@@](O)(CNC(=O)c1cc(OC3CC3)c3ncccc3c1)C(F)(F)F)nc2-c1ccc(F)cc1 [Example 472]
< 200 nM | CNC(=O)CCNC(=O)[C@@]1(C)COc2c1cc([C@@](O)(CNC(=O)c1cc(OC3CC3)c3ncccc3c1)C(F)(F)F)nc2-c1ccc(F)cc1 [Example 474]
< 200 nM | C[C@]1(C(=O)NCC(N)=O)COc2c1cc([C@@](O)(CNC(=O)c1cc(OC3CC3)c3ncccc3c1)C(F)(F)F)nc2-c1ccc(F)cc1 [Example 476]
> 200 nM | C[C@]1(C(=O)NCCNC(N)=O)COc2c1cc([C@@](O)(CNC(=O)c1cc(OC3CC3)c3ncccc3c1)C(F)(F)F)nc2-c1ccc(F)cc1 [Example 478]
< 200 nM | C[C@]1(C(=O)NCc2ccc[nH]2)COc2c1cc([C@@](O)(CNC(=O)c1cc(OC3CC3)c3ncccc3c1)C(F)(F)F)nc2-c1ccc(F)cc1 [Example 480]
< 200 nM | CC(C)(O)CCNC(=O)[C@@]1(C)COc2c1cc([C@@](O)(CNC(=O)c1cc(OC3CC3)c3ncccc3c1)C(F)(F)F)nc2-c1ccc(F)cc1 [Example 483]
> 200 nM | C[C@]1(C(=O)NCCc2ccccc2)COc2c1cc([C@@](O)(CNC(=O)c1cc(OC3CC3)c3ncccc3c1)C(F)(F)F)nc2-c1ccc(F)cc1 [Example 486]
> 200 nM | C[C@]1(C(=O)NCCCc2ccccc2)COc2c1cc([C@@](O)(CNC(=O)c1cc(OC3CC3)c3ncccc3c1)C(F)(F)F)nc2-c1ccc(F)cc1 [Example 487]
< 200 nM | CC(C)(O)C(F)(F)CNC(=O)[C@@]1(C)COc2c1cc([C@@](O)(CNC(=O)c1cc(OC3CC3)c3ncccc3c1)C(F)(F)F)nc2-c1ccc(F)cc1 [Example 488]
< 200 nM | C[C@]1(C(=O)NCC2(O)CC2)COc2c1cc([C@@](O)(CNC(=O)c1cc(OC3CC3)c3ncccc3c1)C(F)(F)F)nc2-c1ccc(F)cc1 [Example 489]
< 200 nM | C[C@]1(C(=O)NCc2ccoc2)COc2c1cc([C@@](O)(CNC(=O)c1cc(OC3CC3)c3ncccc3c1)C(F)(F)F)nc2-c1ccc(F)cc1 [Example 490]
< 200 nM | C[C@]1(C(=O)NCCC2(O)CC2)COc2c1cc([C@@](O)(CNC(=O)c1cc(OC3CC3)c3ncccc3c1)C(F)(F)F)nc2-c1ccc(F)cc1 [Example 491]
